Measurements: the NIST ThermoML archive (doi:10.1016/j.fluid.2004.09.013)

Settings: for mass density: Fluid (supercritical or subcritical phases), Vibrating tube method; for vapor or sublimation pressure: Liquid

C=CCC [1-butene]
Settings	mass density [kg/m3]
388.24 K, 35013 kPa	554.66
388.24 K, 40001 kPa	562.62
393.24 K, 3099 kPa	433.35
393.24 K, 4988 kPa	452.98
393.24 K, 10001 kPa	483.54
393.24 K, 14990 kPa	503.16
393.24 K, 20005 kPa	518.2
393.24 K, 24996 kPa	530.47
393.24 K, 30000 kPa	540.98
393.24 K, 35004 kPa	550.18
393.24 K, 39996 kPa	558.42
398.24 K, 3328 kPa	420.6
398.24 K, 4984 kPa	441.24
398.24 K, 9995 kPa	475.63
398.24 K, 14988 kPa	496.67
398.24 K, 20004 kPa	512.53
398.24 K, 24995 kPa	525.32
398.24 K, 29999 kPa	536.22
398.24 K, 34991 kPa	545.71
398.24 K, 40002 kPa	554.2
403.24 K, 3570 kPa	406.72
403.24 K, 4981 kPa	428.43
403.24 K, 9984 kPa	467.46
403.24 K, 14984 kPa	490.08
403.24 K, 19994 kPa	506.77
403.24 K, 24991 kPa	520.14
403.24 K, 29990 kPa	531.44
403.24 K, 34986 kPa	541.24
403.24 K, 40010 kPa	549.99
408.24 K, 3826 kPa	391.44
408.24 K, 4981 kPa	414.13
408.24 K, 9995 kPa	459.14
408.24 K, 14983 kPa	483.4
408.24 K, 19998 kPa	501
408.24 K, 24993 kPa	514.95
408.24 K, 29994 kPa	526.66
408.24 K, 34991 kPa	536.79
408.24 K, 40009 kPa	545.77
413.24 K, 4097 kPa	374.62
413.24 K, 4986 kPa	397.78
413.24 K, 9991 kPa	450.43
413.24 K, 14983 kPa	476.61
413.24 K, 20002 kPa	495.19
413.24 K, 24998 kPa	509.75
413.24 K, 30000 kPa	521.88
413.24 K, 34989 kPa	532.32
413.24 K, 40005 kPa	541.58
418.24 K, 4381 kPa	356.12
418.24 K, 4990 kPa	378.2
418.24 K, 9997 kPa	441.54
418.24 K, 14996 kPa	469.76
418.24 K, 20000 kPa	489.3
418.24 K, 24996 kPa	504.48
418.24 K, 29999 kPa	517.07
418.24 K, 34991 kPa	527.85
418.24 K, 40005 kPa	537.36
423.24 K, 5017 kPa	354.2
423.24 K, 9991 kPa	431.88
423.24 K, 14996 kPa	462.7
423.24 K, 20000 kPa	483.36
423.24 K, 24995 kPa	499.21
423.24 K, 29997 kPa	512.25
423.24 K, 34989 kPa	523.35
423.24 K, 39991 kPa	533.12
428.24 K, 5020 kPa	318.6
428.24 K, 9997 kPa	422.29
428.24 K, 14995 kPa	455.57
428.24 K, 19996 kPa	477.35
428.24 K, 24996 kPa	493.9
428.24 K, 29993 kPa	507.4
428.24 K, 34987 kPa	518.87
428.24 K, 39990 kPa	528.9
433.24 K, 5019 kPa	257.92
433.24 K, 9998 kPa	412.15
433.24 K, 14987 kPa	448.26
433.24 K, 19989 kPa	471.28
433.24 K, 24994 kPa	488.57
433.24 K, 29992 kPa	502.55
433.24 K, 34997 kPa	514.38
433.24 K, 40003 kPa	524.73
438.24 K, 5011 kPa	195.21
438.24 K, 9986 kPa	401.49
438.24 K, 14995 kPa	440.85
438.24 K, 19991 kPa	465.16
438.24 K, 24999 kPa	483.18
438.24 K, 29997 kPa	497.7
438.24 K, 35010 kPa	509.95
438.24 K, 39994 kPa	520.5
443.24 K, 5018 kPa	165.31
443.24 K, 14986 kPa	433.23
443.24 K, 20005 kPa	458.99
443.24 K, 24988 kPa	477.7
443.24 K, 30010 kPa	492.78
443.24 K, 35012 kPa	505.33
443.24 K, 39996 kPa	516.19
443.25 K, 9990 kPa	390.35
448.24 K, 5018 kPa	148
448.24 K, 14981 kPa	425.58
448.24 K, 19992 kPa	452.7
448.24 K, 24997 kPa	472.33
448.24 K, 29998 kPa	487.86
448.24 K, 34998 kPa	500.83
448.24 K, 39998 kPa	512
448.25 K, 9991 kPa	378.84
453.24 K, 5018 kPa	136.35
453.24 K, 14996 kPa	418.01
453.24 K, 19984 kPa	446.42
453.24 K, 24987 kPa	466.88
453.24 K, 29994 kPa	482.99
453.24 K, 34990 kPa	496.33
453.24 K, 40001 kPa	507.8

Settings	vapor or sublimation pressure [kPa]
395.35 K	2678.7
403.65 K	3085.8
409.68 K	3413.2
415.36 K	3739.2
